Results taken from ChEMBL document CHEMBL1201862, “PubChem BioAssay data set” (2004).
One block for each compound: values may come before it. The source made the active and inactive calls.

How the values were obtained:
[1] = target: Melanocortin receptor 4 (Homo sapiens, UniProt P32245); assay: inhibitors of MC4R cAMP signaling – cell-based, TR-FRET, biased antagonists, dose response (AID 602298); assay type: functional;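 also: antagonist potency against agonist-stimulated cAMP production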
[2] = cAMP pathway inhibition in counterscreen cell line – TR-FRET cAMP detection, counter-screen for MC4R biased antagonist project, dose response (AID 602305); assay type: functional, cell-based;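 also: U2OS cells stimulated with forskolin near its EC80 as the cAMP inducer; potency is for inhibition of forskolin-stimulated cAMP signaling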
[3] = target: Glyceraldehyde-3-phosphate dehydrogenase (Homo sapiens, UniProt P04406)
Chain of Glyceraldehyde-3-phosphate dehydrogenase (P04406 whole entry): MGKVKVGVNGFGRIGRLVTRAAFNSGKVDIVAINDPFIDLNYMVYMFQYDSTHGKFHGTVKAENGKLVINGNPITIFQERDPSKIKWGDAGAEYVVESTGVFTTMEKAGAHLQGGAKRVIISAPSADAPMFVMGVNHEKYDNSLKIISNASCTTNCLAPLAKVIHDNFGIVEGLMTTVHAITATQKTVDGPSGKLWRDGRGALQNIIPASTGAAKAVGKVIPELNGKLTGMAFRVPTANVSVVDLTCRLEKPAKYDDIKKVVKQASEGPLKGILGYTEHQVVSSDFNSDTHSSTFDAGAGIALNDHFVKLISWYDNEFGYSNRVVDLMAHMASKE

[4] = target: Potassium voltage-gated channel subfamily KQT member 2 (Rattus norvegicus, UniProt O88943); assay: blockers of KCNQ2 channel current – cell-based, automated electrophysiology, set II, rat KCNQ2, dose response (AID 588637); assay type: functional
Chain of Potassium voltage-gated channel subfamily KQT member 2 (O88943 whole entry): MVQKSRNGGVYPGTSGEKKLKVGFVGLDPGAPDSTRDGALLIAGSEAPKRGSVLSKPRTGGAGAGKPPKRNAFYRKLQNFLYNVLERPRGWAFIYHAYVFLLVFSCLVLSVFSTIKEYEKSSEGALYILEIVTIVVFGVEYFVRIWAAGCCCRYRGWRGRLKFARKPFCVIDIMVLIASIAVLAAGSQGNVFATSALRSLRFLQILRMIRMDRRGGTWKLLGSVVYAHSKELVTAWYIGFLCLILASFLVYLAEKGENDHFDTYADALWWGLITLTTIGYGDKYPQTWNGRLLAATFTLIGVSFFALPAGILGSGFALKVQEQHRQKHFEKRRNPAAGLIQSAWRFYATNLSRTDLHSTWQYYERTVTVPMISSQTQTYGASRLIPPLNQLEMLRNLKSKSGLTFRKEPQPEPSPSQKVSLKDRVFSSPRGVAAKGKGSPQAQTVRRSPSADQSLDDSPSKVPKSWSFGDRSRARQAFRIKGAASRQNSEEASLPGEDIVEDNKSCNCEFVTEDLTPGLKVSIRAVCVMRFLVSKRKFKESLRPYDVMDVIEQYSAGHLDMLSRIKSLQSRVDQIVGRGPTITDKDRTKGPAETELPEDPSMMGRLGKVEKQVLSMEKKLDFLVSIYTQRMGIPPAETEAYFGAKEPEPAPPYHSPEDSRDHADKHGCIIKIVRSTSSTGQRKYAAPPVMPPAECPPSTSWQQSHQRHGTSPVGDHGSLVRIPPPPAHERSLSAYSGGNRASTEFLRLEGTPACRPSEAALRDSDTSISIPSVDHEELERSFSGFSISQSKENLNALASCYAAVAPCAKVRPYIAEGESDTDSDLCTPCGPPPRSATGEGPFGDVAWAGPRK

[5] = target: 26S proteasome non-ATPase regulatory subunit 14 (Homo sapiens, UniProt O00487); assay: inhibition of proteasome subunit RPN11 – biochemical, fluorescence polarization, uHTS hits, confirmation (AID 602368); assay type: functional
Chain of 26S proteasome non-ATPase regulatory subunit 14 (O00487 whole entry): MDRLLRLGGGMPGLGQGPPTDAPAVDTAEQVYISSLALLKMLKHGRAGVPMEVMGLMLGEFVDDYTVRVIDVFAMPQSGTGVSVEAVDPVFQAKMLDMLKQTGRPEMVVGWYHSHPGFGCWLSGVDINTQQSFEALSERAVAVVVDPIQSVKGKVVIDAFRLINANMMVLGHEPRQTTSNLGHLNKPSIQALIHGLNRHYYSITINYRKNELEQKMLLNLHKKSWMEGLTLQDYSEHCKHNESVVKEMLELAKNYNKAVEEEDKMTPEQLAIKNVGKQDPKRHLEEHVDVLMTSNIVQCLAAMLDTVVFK

[6] = target: 72 kDa type IV collagenase (Homo sapiens, UniProt P08253); assay: Dose Response validation of uHTS RPN11 inhibitor hits using a MMP-2 Fluorescence assay.; assay type: functional
Chain of 72 kDa type IV collagenase (P08253 whole entry): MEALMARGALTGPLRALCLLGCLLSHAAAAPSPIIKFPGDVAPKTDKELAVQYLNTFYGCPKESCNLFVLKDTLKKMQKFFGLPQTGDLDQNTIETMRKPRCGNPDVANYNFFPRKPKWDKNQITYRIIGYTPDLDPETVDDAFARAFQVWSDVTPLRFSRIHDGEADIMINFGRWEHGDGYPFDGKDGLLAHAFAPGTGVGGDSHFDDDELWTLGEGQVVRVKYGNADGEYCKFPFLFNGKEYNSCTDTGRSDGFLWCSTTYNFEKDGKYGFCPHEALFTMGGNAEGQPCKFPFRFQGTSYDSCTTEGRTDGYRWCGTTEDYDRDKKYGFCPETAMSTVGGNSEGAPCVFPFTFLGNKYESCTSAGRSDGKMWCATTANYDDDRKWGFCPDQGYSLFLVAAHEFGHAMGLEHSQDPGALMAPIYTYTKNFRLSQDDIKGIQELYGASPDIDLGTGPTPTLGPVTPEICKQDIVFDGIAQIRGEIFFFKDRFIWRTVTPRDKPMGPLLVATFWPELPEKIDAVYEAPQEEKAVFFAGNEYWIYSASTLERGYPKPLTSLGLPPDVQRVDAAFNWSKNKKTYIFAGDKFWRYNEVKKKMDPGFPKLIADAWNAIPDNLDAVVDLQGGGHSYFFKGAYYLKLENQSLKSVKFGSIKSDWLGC

[7] = target: Prothrombin (Bos taurus, UniProt P00735); assay: thrombin protease inhibitors – biochemical, fluorescence polarization, uHTS hits, dose response (AID 602369); assay type: functional
[8] = target: T1, Carboxy-terminal domain RNA polymerase II polypeptide A small phosphatase 1 (Homo sapiens, UniProt Q9GZU7); assay: CTDSP1 inhibitors, concentration-response, biochemical, absorbance readout, ultra-high-throughput screen actives (AID 540297); assay type: functional
T1 sequence (Q9GZU7 whole entry): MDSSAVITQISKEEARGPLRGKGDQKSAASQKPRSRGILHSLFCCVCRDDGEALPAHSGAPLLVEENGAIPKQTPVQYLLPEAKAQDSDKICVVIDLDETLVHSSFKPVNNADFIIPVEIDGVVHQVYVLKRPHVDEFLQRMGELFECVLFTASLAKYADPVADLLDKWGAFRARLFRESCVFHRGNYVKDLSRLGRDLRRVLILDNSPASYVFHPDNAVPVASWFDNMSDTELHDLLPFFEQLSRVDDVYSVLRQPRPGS

[9] = target: T2, Sentrin-specific protease 8 (Homo sapiens, UniProt Q96LD8); assay: inhibition of human SENP8 cleavage activity – biochemical, luminescence, SAR follow-up (AID 504501); assay type: functional
T2 sequence (Q96LD8 whole entry): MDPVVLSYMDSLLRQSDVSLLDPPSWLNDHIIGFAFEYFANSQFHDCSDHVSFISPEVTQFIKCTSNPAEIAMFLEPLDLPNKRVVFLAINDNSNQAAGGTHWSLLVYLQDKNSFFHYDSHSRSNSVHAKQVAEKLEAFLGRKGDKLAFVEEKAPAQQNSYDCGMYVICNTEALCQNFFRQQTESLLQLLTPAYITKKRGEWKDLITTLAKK

[10] = target: T3, Caspase-3 (Homo sapiens, UniProt P42574); assay: SAR Analysis of small molecule inhibitors of Sentrin-specific proteases (SENPs) using a Caspase-3 Selectivity assay. [Related pubchem assays (depositor defined):AID2540, AID2599, AID434973, AID489001]; assay type: functional
T3 sequence (P42574 whole entry): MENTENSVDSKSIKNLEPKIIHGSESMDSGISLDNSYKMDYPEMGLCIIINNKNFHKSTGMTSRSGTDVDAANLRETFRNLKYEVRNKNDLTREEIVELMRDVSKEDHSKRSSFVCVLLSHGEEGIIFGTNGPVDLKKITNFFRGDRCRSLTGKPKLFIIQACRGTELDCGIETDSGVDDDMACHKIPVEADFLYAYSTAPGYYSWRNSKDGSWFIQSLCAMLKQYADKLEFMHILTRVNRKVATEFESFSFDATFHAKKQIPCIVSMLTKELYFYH

[11] = target: T4, Sentrin-specific protease 6 (Homo sapiens, UniProt Q9GZR1); assay: SAR Analysis of small molecule inhibitors of Sentrin-specific protease 6 (SENP6) using a Luminescent assay. [Related pubchem assays (depositor defined):AID2582, AID2599]; assay type: functional
T4 sequence (Q9GZR1 whole entry): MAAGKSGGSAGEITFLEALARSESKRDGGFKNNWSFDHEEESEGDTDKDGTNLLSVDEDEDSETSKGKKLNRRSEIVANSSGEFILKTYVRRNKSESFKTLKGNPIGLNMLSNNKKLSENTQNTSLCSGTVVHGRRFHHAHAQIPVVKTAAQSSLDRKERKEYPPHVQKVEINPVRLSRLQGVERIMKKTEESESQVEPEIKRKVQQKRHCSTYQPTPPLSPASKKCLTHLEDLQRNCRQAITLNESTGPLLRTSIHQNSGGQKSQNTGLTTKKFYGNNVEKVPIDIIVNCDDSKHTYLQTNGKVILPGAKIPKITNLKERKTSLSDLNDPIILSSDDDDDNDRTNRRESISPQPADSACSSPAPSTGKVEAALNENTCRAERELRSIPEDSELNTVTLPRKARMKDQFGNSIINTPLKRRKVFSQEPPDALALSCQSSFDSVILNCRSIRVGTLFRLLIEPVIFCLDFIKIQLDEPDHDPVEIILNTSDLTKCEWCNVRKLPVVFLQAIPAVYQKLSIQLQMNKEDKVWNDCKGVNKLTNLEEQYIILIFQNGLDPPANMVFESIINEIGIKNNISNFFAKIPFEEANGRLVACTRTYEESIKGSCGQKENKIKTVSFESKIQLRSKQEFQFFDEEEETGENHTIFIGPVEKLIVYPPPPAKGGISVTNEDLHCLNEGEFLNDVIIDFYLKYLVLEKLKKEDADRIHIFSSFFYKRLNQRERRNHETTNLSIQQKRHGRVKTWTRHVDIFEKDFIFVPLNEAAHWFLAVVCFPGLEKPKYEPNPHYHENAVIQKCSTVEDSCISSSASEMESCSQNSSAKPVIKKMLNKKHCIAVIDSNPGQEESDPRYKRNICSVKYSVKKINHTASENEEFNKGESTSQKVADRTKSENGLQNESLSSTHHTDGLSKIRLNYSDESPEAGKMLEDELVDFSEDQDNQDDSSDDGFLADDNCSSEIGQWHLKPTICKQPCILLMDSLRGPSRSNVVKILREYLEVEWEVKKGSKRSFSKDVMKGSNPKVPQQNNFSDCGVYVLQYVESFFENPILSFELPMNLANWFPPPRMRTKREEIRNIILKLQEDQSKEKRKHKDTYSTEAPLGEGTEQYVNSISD

[12] = target: T5, Sentrin-specific protease 7 (Homo sapiens, UniProt Q9BQF6); assay: inhibition of human SENP7 cleavage activity – biochemical, luminescence, SAR follow-up (AID 504497); assay type: functional
T5 sequence (Q9BQF6 whole entry): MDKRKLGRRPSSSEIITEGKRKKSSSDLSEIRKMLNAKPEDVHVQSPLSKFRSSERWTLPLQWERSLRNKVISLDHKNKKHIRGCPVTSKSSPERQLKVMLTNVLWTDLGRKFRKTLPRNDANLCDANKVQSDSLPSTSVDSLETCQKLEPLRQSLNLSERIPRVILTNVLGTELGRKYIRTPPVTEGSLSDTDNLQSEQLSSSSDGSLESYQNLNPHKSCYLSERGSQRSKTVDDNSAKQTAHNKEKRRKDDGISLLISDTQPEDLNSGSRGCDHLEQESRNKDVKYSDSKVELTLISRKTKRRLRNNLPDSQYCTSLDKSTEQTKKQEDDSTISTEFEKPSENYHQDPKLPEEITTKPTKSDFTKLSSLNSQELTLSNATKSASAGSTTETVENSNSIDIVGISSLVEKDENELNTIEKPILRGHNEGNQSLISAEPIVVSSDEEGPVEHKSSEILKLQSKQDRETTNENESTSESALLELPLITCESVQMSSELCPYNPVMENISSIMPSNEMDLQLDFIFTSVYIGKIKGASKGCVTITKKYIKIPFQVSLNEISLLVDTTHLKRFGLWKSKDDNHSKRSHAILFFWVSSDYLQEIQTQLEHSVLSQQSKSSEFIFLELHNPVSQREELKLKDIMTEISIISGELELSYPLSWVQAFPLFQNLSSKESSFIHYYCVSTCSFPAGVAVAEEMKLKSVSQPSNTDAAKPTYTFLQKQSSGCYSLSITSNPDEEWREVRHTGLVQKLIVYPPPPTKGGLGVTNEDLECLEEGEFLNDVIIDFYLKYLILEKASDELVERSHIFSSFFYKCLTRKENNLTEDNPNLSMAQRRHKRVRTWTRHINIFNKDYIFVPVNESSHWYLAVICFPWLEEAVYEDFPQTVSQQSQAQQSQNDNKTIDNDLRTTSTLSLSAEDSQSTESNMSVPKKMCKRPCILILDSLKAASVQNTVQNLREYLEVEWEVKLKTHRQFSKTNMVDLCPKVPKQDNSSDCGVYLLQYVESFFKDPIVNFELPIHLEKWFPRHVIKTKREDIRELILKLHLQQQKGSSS

[13] = target: T6, Apoptotic protease-activating factor 1 (Homo sapiens, UniProt O14727); assay: SAR analysis of small molecule Activators of Apaf-1 in a Fluorescent assay.; assay type: functional; conditions: read-out: EC50_Mean;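 also: caspase-3 cleavage of fluorogenic Rh110 DEVD substrate downstream of apoptosome activation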
T6 sequence (O14727 whole entry): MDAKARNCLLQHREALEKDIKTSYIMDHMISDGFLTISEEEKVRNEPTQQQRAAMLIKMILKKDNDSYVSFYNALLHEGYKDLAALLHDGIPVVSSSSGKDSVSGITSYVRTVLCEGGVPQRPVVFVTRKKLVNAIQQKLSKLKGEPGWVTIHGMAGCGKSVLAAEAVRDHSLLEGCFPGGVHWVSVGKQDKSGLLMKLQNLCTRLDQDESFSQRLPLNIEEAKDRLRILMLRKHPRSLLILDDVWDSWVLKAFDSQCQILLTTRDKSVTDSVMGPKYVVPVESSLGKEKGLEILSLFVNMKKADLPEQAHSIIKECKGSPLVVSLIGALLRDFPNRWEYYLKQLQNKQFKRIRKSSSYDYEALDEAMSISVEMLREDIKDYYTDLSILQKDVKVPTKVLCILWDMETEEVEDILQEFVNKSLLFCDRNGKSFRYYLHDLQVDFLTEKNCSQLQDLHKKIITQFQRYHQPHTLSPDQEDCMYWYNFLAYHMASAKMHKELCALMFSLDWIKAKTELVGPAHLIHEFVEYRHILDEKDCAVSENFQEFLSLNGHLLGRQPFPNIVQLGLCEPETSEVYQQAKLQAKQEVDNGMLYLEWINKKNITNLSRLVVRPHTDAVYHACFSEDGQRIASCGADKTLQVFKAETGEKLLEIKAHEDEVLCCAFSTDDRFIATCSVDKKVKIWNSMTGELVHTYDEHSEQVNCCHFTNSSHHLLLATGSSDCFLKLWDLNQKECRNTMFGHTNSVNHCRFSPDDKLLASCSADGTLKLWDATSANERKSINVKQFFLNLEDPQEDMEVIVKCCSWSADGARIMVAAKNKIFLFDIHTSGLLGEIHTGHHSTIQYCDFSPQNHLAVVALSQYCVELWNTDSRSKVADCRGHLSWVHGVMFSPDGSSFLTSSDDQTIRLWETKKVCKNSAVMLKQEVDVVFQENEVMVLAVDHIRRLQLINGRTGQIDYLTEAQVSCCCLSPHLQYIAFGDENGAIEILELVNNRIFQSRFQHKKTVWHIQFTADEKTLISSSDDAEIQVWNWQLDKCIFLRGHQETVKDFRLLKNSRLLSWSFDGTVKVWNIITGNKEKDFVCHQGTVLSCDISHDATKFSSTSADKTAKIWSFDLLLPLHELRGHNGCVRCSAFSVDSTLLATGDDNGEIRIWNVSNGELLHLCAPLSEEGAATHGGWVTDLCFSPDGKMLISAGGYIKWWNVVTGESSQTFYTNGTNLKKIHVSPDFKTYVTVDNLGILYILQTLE

[14] = viability of PTEN-deleted HCT116 cells – cell-based, HCT116 PTEN knockout, dose response (AID 1047); assay type: functional;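 also: HCT116 colon tumor cells with PTEN knocked out; cells exposed to compound for 60 hours before readout; potency for loss of cell viability measured by luminescence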
[15] = viability of HCT116 lacking mutant beta-catenin – cell-based, human colon tumor, dose response (AID 1045); assay type: functional;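 also: HCT116 colon tumor cells with beta catenin knocked out; cells exposed to compound for 60 hours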
[16] = target: Tyrosine-protein kinase JAK2 (Homo sapiens, UniProt O60674); assay type: functional;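 also: JAK2 tested as one member of a kinase panel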
Chain of Tyrosine-protein kinase JAK2 (O60674 whole entry): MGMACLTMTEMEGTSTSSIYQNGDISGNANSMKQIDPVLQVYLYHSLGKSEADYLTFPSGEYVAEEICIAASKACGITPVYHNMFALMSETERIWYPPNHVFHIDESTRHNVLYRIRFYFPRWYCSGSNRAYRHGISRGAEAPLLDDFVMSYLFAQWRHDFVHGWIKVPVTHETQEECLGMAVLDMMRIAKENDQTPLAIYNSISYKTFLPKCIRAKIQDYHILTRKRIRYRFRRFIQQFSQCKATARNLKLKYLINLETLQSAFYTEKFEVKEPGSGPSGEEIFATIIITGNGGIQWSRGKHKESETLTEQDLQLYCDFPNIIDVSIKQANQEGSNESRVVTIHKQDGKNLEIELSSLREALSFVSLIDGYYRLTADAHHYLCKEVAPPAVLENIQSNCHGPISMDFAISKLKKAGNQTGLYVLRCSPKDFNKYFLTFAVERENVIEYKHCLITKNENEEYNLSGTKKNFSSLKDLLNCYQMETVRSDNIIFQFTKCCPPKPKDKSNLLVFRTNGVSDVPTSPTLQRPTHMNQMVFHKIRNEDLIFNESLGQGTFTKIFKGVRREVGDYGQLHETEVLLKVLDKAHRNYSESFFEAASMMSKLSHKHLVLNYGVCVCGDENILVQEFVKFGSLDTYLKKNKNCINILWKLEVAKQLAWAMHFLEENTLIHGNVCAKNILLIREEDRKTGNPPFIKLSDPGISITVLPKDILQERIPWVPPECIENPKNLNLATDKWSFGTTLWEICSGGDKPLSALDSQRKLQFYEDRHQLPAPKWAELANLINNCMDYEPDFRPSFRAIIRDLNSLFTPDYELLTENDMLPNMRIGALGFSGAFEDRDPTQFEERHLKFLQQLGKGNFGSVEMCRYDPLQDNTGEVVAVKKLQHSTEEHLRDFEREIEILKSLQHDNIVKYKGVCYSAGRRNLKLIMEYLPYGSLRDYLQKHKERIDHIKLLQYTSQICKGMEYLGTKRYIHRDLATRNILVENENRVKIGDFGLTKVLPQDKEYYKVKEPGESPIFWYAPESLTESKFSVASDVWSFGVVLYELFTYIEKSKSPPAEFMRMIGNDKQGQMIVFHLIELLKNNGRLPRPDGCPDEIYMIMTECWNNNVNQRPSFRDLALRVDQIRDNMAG

[17] = target: Tyrosine-protein kinase JAK3 (Homo sapiens, UniProt P52333); assay type: functional
Chain of Tyrosine-protein kinase JAK3 (P52333 whole entry): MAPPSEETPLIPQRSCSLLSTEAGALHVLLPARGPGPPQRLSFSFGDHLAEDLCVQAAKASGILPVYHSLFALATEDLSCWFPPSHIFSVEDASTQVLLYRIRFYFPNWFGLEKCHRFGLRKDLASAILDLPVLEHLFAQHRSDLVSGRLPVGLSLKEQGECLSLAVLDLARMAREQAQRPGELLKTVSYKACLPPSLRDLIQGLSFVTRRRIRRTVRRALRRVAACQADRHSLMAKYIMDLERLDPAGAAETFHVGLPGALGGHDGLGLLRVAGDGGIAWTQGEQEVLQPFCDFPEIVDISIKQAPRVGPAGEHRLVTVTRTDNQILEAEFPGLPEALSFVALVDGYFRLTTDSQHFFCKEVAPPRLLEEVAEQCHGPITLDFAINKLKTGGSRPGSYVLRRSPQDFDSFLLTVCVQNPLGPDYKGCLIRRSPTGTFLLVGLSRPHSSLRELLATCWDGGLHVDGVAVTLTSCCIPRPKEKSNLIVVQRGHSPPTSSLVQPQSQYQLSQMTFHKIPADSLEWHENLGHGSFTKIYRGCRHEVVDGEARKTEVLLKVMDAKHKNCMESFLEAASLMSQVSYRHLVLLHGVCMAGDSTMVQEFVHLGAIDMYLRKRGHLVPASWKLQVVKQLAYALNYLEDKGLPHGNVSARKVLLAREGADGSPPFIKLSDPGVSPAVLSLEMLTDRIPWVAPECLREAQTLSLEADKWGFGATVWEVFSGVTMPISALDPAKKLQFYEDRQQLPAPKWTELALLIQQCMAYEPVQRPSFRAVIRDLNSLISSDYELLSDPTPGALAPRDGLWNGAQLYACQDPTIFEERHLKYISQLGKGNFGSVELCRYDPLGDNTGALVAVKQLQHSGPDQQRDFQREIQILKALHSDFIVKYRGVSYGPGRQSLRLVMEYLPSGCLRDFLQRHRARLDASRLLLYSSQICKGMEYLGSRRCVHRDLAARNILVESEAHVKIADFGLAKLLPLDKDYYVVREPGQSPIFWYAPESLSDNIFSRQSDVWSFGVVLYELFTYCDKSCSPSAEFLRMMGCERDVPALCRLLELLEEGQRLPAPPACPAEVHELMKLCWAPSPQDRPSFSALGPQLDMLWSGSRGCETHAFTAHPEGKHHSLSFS

Chain of Melanocortin receptor 4 (P32245 whole entry): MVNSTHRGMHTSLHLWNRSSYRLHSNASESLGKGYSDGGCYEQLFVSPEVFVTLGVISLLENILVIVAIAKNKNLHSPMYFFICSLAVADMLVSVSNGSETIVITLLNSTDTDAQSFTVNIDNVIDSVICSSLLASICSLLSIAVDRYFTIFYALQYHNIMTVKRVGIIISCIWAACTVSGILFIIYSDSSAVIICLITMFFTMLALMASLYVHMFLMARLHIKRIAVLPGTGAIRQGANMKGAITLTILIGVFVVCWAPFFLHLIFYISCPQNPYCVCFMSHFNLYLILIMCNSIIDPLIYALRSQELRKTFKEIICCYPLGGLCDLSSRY

- IC50 [5]: 8.23 µM (active)
- IC50 [6]: > 100 µM (inactive)
- IC50 [7]: 11.4 µM (active)
Structure (SMILES): O=Cc1sc(Nc2ccccc2)nc1Cl

- IC50 [8]: 18.5 µM (active)
- IC50 [5]: 24.8 µM (active)
- IC50 [6]: > 100 µM (inactive)
- IC50 [7]: 71.3 µM (active)
Structure (SMILES): O=C(NNc1ncnc2ccccc12)c1cccc(Cl)c1

- IC50 [10]: > 99 µM (inactive)
- IC50 [11]: > 99 µM (inactive)
- IC50 [12]: > 99 µM (inactive)
Structure (SMILES): COc1ccc(OC)c2sc(NC(=O)c3ccc(Br)s3)nc12
- IC50 [9]: > 99 µM (inactive)

- EC50 [13]: > 100 µM (inactive)
Structure (SMILES): COc1ccccc1NC(=O)CCS(=O)(=O)c1ccc2c(c1)NC(=O)C(C)S2 (configuration not stated)

- Ki [16]: 0.00501 µM (active)
- Ki [17]: 0.00501 µM (active)
Structure (SMILES): O=c1[nH]c2cnc(-n3cnc4ccc(F)cc43)nc2n1C1CCOc2c(F)cccc21 (configuration not stated)

Further lines, the compound ahead of its results:

Structure (SMILES): CCOC(=O)N1CCN(CCC(=O)c2ccc(OC)cc2)CC1
- IC50 [1]: > 64.5 µM (inactive)
- IC50 [2]: > 64.5 µM (inactive)

Structure (SMILES): Cc1cc(C)c(/N=C2\CCCN2Cc2ccccc2)c(C#N)c1
- IC50 [3]: > 100 µM (not active)
- IC50 [4]: 1.99 µM (active)

Structure (SMILES): CCc1ccc(OCC(=O)NC(N=C(S)Nc2ccccc2OC)C(Cl)(Cl)Cl)cc1 (configuration not stated)
- EC50 [14]: 9.76 µM (active)
- EC50 [15]: 9.32 µM (active)
- IC50 [1]: > 64.6 µM (inactive)
- IC50 [2]: > 64.6 µM (inactive)
